Experimental data: ChEMBL document CHEMBL5465560, “Selectivity Literature for EUbOPEN Chemogenomic Library” (2024)
Values belong to the compound of their own block, whether it stands above or below them.

Assays:
[1] = biological target: Serine/threonine-protein kinase PAK 3 (Homo sapiens) (UniProt O75914); assay: Selectivity interaction (KinomeScan (DiscoverX)) EUB0000666a PAK3; conditions: at 10 µM
[2] = biological target: T1, Uncharacterized serine/threonine-protein kinase SBK3 (Homo sapiens) (UniProt P0C264); assay: Selectivity interaction (KinomeScan (DiscoverX)) EUB0000607a SBK3; conditions: at 10 µM
T1 sequence (whole entry): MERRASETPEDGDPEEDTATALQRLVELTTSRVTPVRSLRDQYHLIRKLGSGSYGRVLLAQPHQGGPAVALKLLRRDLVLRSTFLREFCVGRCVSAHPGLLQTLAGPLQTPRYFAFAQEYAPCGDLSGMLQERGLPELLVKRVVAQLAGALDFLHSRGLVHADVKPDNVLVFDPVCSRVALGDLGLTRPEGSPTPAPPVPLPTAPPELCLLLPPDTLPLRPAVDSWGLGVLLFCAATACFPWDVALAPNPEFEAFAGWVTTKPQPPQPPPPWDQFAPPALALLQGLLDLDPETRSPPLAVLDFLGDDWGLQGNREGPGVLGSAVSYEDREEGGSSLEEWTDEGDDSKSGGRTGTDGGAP

[3] = biological target: T2, Myosin light chain kinase family member 4 (Homo sapiens) (UniProt Q86YV6); assay: Selectivity interaction (KinomeScan (DiscoverX)) EUB0000607a MYLK4; conditions: at 10 µM
T2 sequence (whole entry): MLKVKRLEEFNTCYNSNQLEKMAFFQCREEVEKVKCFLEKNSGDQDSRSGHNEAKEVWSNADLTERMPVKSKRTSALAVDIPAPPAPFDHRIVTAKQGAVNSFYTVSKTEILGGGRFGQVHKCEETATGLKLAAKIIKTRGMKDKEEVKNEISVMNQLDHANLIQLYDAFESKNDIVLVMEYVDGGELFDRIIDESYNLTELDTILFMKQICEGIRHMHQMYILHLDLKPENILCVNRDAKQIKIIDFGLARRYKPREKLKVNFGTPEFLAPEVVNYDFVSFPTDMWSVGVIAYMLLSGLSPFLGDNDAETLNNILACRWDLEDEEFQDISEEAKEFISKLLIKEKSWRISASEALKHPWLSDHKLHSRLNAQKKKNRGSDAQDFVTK

[4] = biological target: MAP/microtubule affinity-regulating kinase 3 (Homo sapiens) (UniProt P27448); assay: Selectivity interaction (ActivX KiNativ screen (kinase selectivity in THP-1 cell lysates)) EUB0000639a MARK3; format: subcellular; conditions: lysate, at 0.01 µM
Sequence of MAP/microtubule affinity-regulating kinase 3 (Homo sapiens) (P27448 whole entry, looked up): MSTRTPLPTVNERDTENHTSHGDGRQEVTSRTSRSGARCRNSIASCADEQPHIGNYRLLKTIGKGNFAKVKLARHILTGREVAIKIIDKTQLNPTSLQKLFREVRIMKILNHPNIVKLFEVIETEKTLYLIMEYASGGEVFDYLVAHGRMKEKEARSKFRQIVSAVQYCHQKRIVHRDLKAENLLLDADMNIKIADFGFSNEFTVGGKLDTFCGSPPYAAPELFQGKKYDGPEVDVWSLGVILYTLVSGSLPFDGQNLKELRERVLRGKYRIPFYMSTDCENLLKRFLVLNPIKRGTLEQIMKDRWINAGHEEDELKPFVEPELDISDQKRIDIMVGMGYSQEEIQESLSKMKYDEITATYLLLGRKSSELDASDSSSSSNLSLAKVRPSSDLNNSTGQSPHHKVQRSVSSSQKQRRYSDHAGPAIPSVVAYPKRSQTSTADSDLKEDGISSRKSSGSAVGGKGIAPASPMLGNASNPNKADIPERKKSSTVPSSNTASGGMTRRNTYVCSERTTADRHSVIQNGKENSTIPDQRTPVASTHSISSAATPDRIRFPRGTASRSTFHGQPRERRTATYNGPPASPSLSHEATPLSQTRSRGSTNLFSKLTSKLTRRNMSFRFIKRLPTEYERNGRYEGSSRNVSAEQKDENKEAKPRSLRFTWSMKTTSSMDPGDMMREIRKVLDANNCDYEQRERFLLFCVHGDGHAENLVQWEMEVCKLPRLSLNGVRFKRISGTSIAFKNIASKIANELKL

[5] = biological target: D(2) dopamine receptor (Homo sapiens, UniProt P14416); assay: Selectivity interaction (Panel of non-epigenetic targets (kinases, GPCRs, ion channels, and transporters, Eurofins) ) EUB0000271b DRD2; conditions: at 1 µM
Sequence of D(2) dopamine receptor (P14416 whole entry, canonical isoform): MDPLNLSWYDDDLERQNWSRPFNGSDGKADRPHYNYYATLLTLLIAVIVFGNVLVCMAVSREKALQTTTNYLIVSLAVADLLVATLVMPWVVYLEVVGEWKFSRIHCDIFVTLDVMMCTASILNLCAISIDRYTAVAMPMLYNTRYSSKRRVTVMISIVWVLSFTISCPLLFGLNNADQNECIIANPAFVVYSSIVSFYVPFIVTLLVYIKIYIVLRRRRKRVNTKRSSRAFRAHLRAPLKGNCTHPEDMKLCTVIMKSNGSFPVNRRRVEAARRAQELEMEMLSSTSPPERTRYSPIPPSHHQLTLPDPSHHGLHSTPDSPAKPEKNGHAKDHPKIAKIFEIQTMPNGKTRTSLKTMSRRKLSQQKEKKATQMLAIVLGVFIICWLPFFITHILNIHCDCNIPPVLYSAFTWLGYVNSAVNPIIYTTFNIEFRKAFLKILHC

[6] = biological target: Casein kinase I isoform alpha (Homo sapiens, UniProt P48729); conditions: at 10 µM
Sequence of Casein kinase I isoform alpha (P48729 2-337 limits assumed): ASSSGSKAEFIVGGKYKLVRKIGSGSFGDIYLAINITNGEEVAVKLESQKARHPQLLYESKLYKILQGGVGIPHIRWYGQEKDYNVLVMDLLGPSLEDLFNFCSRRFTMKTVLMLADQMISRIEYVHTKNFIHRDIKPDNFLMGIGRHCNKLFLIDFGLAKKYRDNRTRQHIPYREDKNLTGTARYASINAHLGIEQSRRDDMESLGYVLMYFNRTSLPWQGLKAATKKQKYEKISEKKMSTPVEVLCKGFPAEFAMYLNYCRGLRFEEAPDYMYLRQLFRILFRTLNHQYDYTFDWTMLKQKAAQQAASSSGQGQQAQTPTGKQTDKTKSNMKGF

[7] = biological target: T3, Eukaryotic elongation factor 2 kinase (Homo sapiens) (UniProt O00418); assay: Selectivity interaction (ActivX KiNativ screen (ex vivo kinase selectivity in human PBMCs)) EUB0001619a EEF2K; format: cell-based; conditions: PBMC, at 1 µM
T3 sequence (whole entry): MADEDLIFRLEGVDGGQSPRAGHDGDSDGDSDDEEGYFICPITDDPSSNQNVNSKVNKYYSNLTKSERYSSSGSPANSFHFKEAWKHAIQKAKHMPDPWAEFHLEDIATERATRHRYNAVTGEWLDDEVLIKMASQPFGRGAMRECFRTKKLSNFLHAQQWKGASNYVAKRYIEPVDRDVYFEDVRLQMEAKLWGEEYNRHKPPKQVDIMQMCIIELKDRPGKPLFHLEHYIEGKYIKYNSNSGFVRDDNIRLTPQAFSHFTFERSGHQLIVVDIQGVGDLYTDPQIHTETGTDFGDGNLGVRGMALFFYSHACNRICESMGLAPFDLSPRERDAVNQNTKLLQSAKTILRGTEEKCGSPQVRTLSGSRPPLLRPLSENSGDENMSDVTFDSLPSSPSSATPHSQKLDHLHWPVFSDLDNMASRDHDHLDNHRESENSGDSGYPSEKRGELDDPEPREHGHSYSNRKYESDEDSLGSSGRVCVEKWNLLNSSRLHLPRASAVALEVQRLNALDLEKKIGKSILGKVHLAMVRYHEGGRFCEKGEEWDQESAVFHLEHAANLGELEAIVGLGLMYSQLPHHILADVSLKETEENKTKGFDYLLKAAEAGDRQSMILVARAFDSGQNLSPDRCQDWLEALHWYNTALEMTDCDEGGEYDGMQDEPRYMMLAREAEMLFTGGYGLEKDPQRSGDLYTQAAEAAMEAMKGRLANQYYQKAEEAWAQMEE

Sequence of Serine/threonine-protein kinase PAK 3 (Homo sapiens) (O75914 whole entry, looked up): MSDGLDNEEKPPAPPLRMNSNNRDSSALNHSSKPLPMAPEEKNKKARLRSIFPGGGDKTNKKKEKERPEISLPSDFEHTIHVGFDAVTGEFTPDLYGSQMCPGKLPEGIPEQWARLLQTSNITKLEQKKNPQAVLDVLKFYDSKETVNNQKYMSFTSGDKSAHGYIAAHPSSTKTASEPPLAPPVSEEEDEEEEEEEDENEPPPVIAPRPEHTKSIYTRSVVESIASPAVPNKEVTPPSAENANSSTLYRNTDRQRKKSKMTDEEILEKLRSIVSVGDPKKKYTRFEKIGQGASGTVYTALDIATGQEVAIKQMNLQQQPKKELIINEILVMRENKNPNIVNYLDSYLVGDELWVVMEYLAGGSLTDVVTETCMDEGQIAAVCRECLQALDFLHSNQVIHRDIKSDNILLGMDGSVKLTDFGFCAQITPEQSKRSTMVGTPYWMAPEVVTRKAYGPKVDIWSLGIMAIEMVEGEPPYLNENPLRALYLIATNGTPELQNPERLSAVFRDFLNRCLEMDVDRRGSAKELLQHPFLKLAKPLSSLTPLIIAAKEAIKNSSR

Structure (SMILES): O=C(NOC[C@H](O)CO)c1ccc(F)c(F)c1Nc1ccc(I)cc1F
- % of control [1]: 100%

Structure (SMILES): CNC(=O)Nc1ccc(-c2nc(N3CC4CCC(C3)O4)c3cnn(C4CCC5(CC4)OCCO5)c3n2)cc1
- % of control [2]: 96%
- % of control [3]: 100%

- % of inhibition [4]: 2.3%
Structure (SMILES): CC[C@@H]1[C@H](F)C(=O)N[C@@H]1COc1nccc2cc(C(N)=O)c(OC)cc12 [ZIMLOVISERTIB]

Structure (SMILES): Cc1cc(C)cc([C@@H]2c3cc(C)ccc3NC(=O)CN2C(=O)c2ccc(Br)s2)c1
- % of inhibition [5]: -1%

Structure (SMILES): Cc1cc([C@@H](C)Nc2ccccc2C(=O)O)c2nc(N3CCOCC3)cc(=O)n2c1 [AZD-6482]
- % of control [6]: 63%

Structure (SMILES): N#Cc1cccc(-c2c[nH]c3ncnc(N4CCOCC4)c23)c1
- % of inhibition [7]: 3%
